Legend:
FABP4 = target: T1, FABP4 (Homo sapiens, UniProt P15090); assay: FABP binding assay by fluorescence titration (ANS competition); conditions: fluorescence competition with ANS; read-out: FABP4 binding
T1 construct: made in house
Experimental: (§1) This example illustrates a binding assay study used to determine the binding affinity of the various inhibitor compounds disclosed herein with the various FABPs: FABP3, FABP4, FABP5 and FABP7.
(§2) Binding assays for FABP3, FABP4, FABP5 and FABP7 were carried out by fluorescence titrations. FABPs were bacterially expressed and purified and the equilibrium dissociation constants (Kd) that characterize their interactions with different compounds were measured by fluorescence competition assays. The method entails two steps as described in e.g., Lin, Q. et al., “Ligand selectivity of the peroxisome proliferator-activated receptor alpha,” Biochemistry 38, 185-190, doi:10.1021/bi9816094 bi9816094 [pii](1999). In the first step, Kd for the association of the protein with the fluorescent fatty acid probe ANS was measured. Protein ([…]) was titrated with ANS from a concentrated solution in DMSO. Ligand binding was monitored by following the increase in the fluorescence of the ligand upon binding to the protein, and Kd for the association of ANS with the each FABP was computed from titration curves as described in e.g., Norris, A. W. & Li, E., “Fluorometric titration of the CRABPs,” Methods Mol Biol 89, 123-139 (1998)). Kds for binding of non-fluorescent ligands were then measured by monitoring their ability to displace ANS in the binding pocket of the protein. Each FABP was pre-complexed with ANS at 1:1 molar ratio and titrated with the different compounds whose binding was reflected by a decrease in probe fluorescence. Kds were extracted from the EC50 of the competition curve and the measured Kd for ANS.
(§3) Binding assays for FABP3, FABP4, FABP5 and FABP7 were carried out by fluorescence titrations as described in Example 16.

FABP5 = target: T2, FABP5 (Homo sapiens, UniProt Q01469); assay: as above; conditions: fluorescence competition with ANS; read-out: FABP5 binding
T2 construct: made in house
Experimental: as §1, §2, §3

PPARδ = assay: Transactivation assay, PPRE luciferase reporter in COS-7 cells; type: cell-based; conditions: 5 μM, COS7 cells, FIG. 36A
Experimental: COS-7 were cultured in 6-well plates and co-transfected with either a luciferase reporter driven by 3 copies of a PPRE and expression vector for either PPARδ, PPARα or PPARγ together with a vector harboring cDNA for β-galactosidase, serving as a transfection control. To test whether FABP4 or FABP5 mediate activation of their cognate receptors PPARγ and PPARδ, respectively, cells were also co-transfected with a plasmid harboring sequence of either FABP4 or FABP5. 18 h post-transfection, cells were placed in a serum-free medium and treated with agonist/compound. 18 h. later, cells were lysed, luciferase activity was assayed (Promega, WI, USA) and corrected for transfection efficiency by the activity of β-galactosidase.
COS-7 were cultured in 6-well plates and co-transfected with either a luciferase reporter driven by 3 copies of a PPRE and expression vector for either PPARδ, PPARα or PPARγ together with a vector harboring cDNA for β-galactosidase, serving as a transfection control. 18 h. post-transfection, cells were placed in a serum-free medium and treated with agonist/compound. 18 h. later, cells were lysed, luciferase activity was assayed (Promega, WI, USA) and corrected for transfection efficiency by the activity of β-galactosidase.

HepG2 cells = assay: Lipid uptake assay, oleic acid, Nile Red (steatosis model); type: cell-based, human; conditions: OA 1 mM 24 h, compound 4 h before
Experimental: 2) Hepg2 cells: 5000 cells were plated in 96-well plate. The next day cells were treated with tested compounds for 4 hours and then treated with 1 mM oleic acid for additional 24 hours. Cells were then stained with Nile Red and Dapi and lipid content was quantified using Cytation5 (Agilent).
2) Hepg2 cells: 5000 cells were plated in 96-well plate. The next day cells were treated with tested compounds for 4 hours and then treated with 1 mM oleic acid for additional 24 hours. Cells were then stained with Nile Red and Dapi and lipid content was quantified.

MB-231 cells = assay: Proliferation assay (Incucyte confluency, 4 days); type: cell-based; conditions: MB-231, serial dilution
Experimental: (§4) COS-7, MDA-MB-231, HepG2, LX-2, 3T3-L1, NPG, and MCF7 were cultured in Dulbecco's modified Eagle's medium (DMEM) supplemented with 10% fetal bovine serum (Invitrogen Life Sciences, Carlsbad, CA). MDA-MB-157 and MB-549 cells were cultured in L-Glutamine containing RPMI medium supplemented with 10% fetal calf serum (Invitrogen Life Sciences, Carlsbad, CA). For proliferation assays, 2000 cells were plated in each well of 96-well plate. The next day cells were treated with compounds and incubated in Incucyte for 4 days. Images taken every 4 hours for the duration of the time were analyzed to calculate percentage of confluency in response to the treatments.
(§5) The TNBC line MB-231 was used to calculate the efficacy of compounds B104, B106, B110, B116, and B118 in inhibiting proliferation of the cancer cells. Cells were treated with serial dilution of the compounds or the known FABP5/7 inhibitor SBF-I26 and proliferation was measured in Incucyte by calculating percentage of confluency every 4 hours over 4 days. […] The EC50 for each compound was calculated by fitting the percentage of inhibition vs. the logarithmic transformation of the used concentrations (FIG. 37B and FIG. 37D). Additionally, the effect of B116 and B118 was also tested on proliferation of the human TNBC lines MDA-MB-157 (FIG. 37E) and MB-549 (FIG. 37F).

MB-549 = assay: Proliferation assay (Incucyte confluency, 4 days); type: cell-based, human; conditions: MB-549, 4 days
Experimental: as §4, §5

MDA-MB-157 = assay: Proliferation assay (Incucyte confluency, 4 days); type: cell-based, human; conditions: MDA-MB-157, 4 days
Experimental: as §4, §5

[1] = test system: NPG human neuroblastoma cells; assay: Neuroblastoma proliferation assay with or without all-trans retinoic acid; type: cell-based; conditions: for proliferation of neuroblastoma cells in combination with atRA: combined with atRA; for proliferation of neuroblastoma cells: compound alone, 4 days
Experimental: as §4
Activation of PPARβ by atRA shifts the signaling of this vitamin from its cognate receptor RAR that is known to have anti-carcinogenic activities in multiple cancers to the pro-carcinogenic PPARβ. […] Accordingly, NB, human NPG cells were used to test the effect of FABP5 inhibitors on cells' proliferation in combination with atRA. Cells were treated with either B104 or B108 in the presence or absence of atRA.

T2 sequence (Q01469 whole entry, species assumed): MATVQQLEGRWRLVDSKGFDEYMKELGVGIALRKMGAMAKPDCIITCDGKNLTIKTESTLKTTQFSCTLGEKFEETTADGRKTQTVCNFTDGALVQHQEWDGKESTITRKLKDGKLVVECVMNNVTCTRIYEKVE
T1 sequence (P15090 whole entry, species assumed): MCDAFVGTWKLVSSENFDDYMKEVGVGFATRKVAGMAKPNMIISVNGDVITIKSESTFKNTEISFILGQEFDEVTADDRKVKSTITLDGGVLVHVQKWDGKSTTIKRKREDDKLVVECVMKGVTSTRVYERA

| Kd (FABP4) [nM] | Kd (FABP5) [nM] | Compound | activation of transcription by PPARδ (PPARδ) | uptake of lipid into hepatic cells (Nile Red) (HepG2 cells) | suppression of growth of TNBC cells compared with SBF-I26 (MB-231 cells) | proliferation (MB-549) | proliferation (MDA-MB-157) | proliferation of neuroblastoma cells in combination with atRA [1] | proliferation of neuroblastoma cells [1] |
| --- | --- | --- | --- | --- | --- | --- | --- | --- | --- |
| 90 | 3 | CC(C)Oc1cc(NC(=O)CC(C)(C)CC(=O)O)c(Cl)cc1Cl [Compound B116, 5-((2,4-dichloro-5-isopropoxyphenyl)amino)-3,3-dimethyl-5-oxopentanoic acid] | do not Activate Transcription | markedly inhibited | Suppress Growth of TNBC Cells More Effectively than the Commercially Available Inhibitor SBF-I26 | inhibited proliferation of both TNBC lines | inhibited proliferation of both TNBC lines | sensitize cells to all-trans retinoic acid treatments | inhibit growth of neuroblastoma |
| 78 | 2 | CC(C)Oc1cc(NC(=O)CC2(CC(=O)O)CCCC2)c(Cl)cc1Cl [Compound B118, 2-(1-(2-((2,4-dichloro-5-isopropoxyphenyl)amino)-2-oxoethyl)cyclopentyl)acetic acid] | do not Activate Transcription | markedly inhibited | Suppress Growth of TNBC Cells More Effectively than the Commercially Available Inhibitor SBF-I26 | inhibited proliferation of both TNBC lines | inhibited proliferation of both TNBC lines | sensitize cells to all-trans retinoic acid treatments | inhibit growth of neuroblastoma |
